Results reported in PMC9502271, “An Investigation of the Anti-Depressive Properties of Phenylpropanoids and Flavonoids in Hemerocallis citrina Baroni” (Molecules, 2022).
Like-named read-outs stand apart in the source and are kept apart here.

Key:
BV2 microglial cells = experiment: CCK8 cytotoxic activity in BV2 microglial cells; assay type: cell-based; settings: compound test concentrations 3.125 to 100 μM, read-out: IC50 Cell Viability
Method: (§1) BV2 microglia cells were purchased from iCell Bioscience Inc. (Shanghai, China). The cells were grown at 37 °C in a humid environment with 5% CO2. In DMEM with 10% fetal bovine serum and 1% penicillin-streptomycin solution, they were maintained alive. The following assays were carried out while the cells were in the exponential growth phase (subcultured 2–3 times).
The cytotoxic activity was assessed using the CCK8 test. In a 96-well plate, BV2 microglial cells (5 × 10^4 cells/well) were placed in each well and incubated for 12 h. After one hour with each substance, LPS (1 μg/mL) was applied to the BV2 microglia cells for an additional 24 h. The CCK8 solution was then incubated with BV2 cells for 1 h at 37 °C. The absorbance at 450 nm was measured using a plate reader (Molecular Devices, San Jose, CA, USA). The cells that had not been treated were assumed to have a 100% optical density.

[1] = test system: NO production induced by LPS in BV2 cells; experiment: Inhibition of NO production in LPS-induced BV2 microglial cells (Griess reagent); assay type: cell-based; settings: for IC50: compound test concentrations 3.125 to 100 μM, mean ± SD (n = 3), read-out: IC50 NO Inhibitory
Method: as §1
To determine how much NO is produced, the literature was consulted. Equal parts of the Griess reagent (1% sulfanilamide and 0.1% N-(1-naphthyl) ethylenediamine dihydrochloride in 2.5% phosphoric acid) were combined with the sample-treated cell culture medium for 5 min at room temperature and in the dark. It was determined that the absorbance was at 540 nm using a microplate reader. The trials were conducted simultaneously in triplicate.

[2] = Mus musculus, BV-2, CCK8, LPS 1 μg/mL 24 h
[3] = Mus musculus, BV-2, LPS-induced BV2 cells

Row | Structure (SMILES) | IC50 (BV2 microglial cells; [2]) | IC50 [1, 3] | IC50 ([1]; LPS-induced BV2 cells) | IC50 (BV2 microglial cells; CCK8, LPS 1 μg/mL 24 h) | inhibitory effects on NO production in comparison with the positive drug indomethacin ([1]; LPS-induced BV2 cells)
1 | C[C@@H]1O[C@@H](OC[C@H]2O[C@@H](Oc3c(-c4ccc(O)cc4)oc4cc(O)cc(O)c4c3=O)[C@H](O)[C@@H](O)[C@H]2O)[C@H](O)[C@H](O)[C@H]1O [Compound 34, kaempferol-3-O-α-L-rhamnopyranosyl-(1→6)-β-D-galactpyranoside] | > 100 µM | > 100 µM | – | – | –
2 | O=C(C=Cc1ccc(O)cc1)OC1CC2(O)CC(OC2=O)C1O (centres unmarked) [Compound 7, 3-O-(E)-p-coumaroylquinide] | > 100 µM | – | 94.6 ± 5.62 µM | – | –
3 | C[C@@H]1O[C@@H](OC[C@H]2O[C@@H](Oc3c(-c4ccc(O)cc4)oc4cc(O)cc(O)c4c3=O)[C@H](O[C@@H]3O[C@@H](C)[C@H](O)[C@@H](O)[C@H]3O)[C@@H](O)[C@H]2O)[C@H](O)[C@H](O)[C@H]1O [Compound 36, kaempferol-3-O-[α-L-rhamnopyranosyl-(1→6)]-[α-L-rhamnopyranosyl-(1→2)]-β-D-galactopyranoside] | > 100 µM | > 100 µM | – | – | –
4 | O=C(/C=C\c1ccc(O)cc1)O[C@H]1[C@@H](O)C[C@](O)(C(=O)O)C[C@@H]1O [Compound 10, 4-O-(Z)-p-coumaroylquinic acid] | > 100 µM | > 100 µM | – | – | –
5 | O=C(/C=C/c1ccc(O)cc1)O[C@H]1[C@@H](O)C[C@](O)(C(=O)O)C[C@@H]1O [Compound 9, 4-O-(E)-p-coumaroylquinic acid] | > 100 µM | > 100 µM | – | – | –
6 | O=C(O)/C=C\c1ccc(O)cc1 [Compound 2, (Z)-p-coumaric acid] | > 100 µM | > 100 µM | – | – | –
7 | C[C@@H]1O[C@@H](OC[C@H]2O[C@@H](Oc3c(-c4ccc(O)c(O)c4)oc4cc(O)cc(O)c4c3=O)[C@H](O)[C@@H](O)[C@@H]2O)[C@H](O)[C@H](O)[C@H]1O [Compound 20, quercetin-3-O-rutinoside] | > 100 µM | > 100 µM | – | – | –
8 | COc1ccc2c(c1)c(CC(=O)O)c(C)n2C(=O)c1ccc(Cl)cc1 [Indomethacin, indomethacin, reference compound] | > 100 µM | 52.6 ± 4.58 µM | – | – | –
9 | COc1cc(-c2oc3cc(O)cc(O)c3c(=O)c2O[C@@H]2O[C@H](CO[C@@H]3O[C@@H](C)[C@H](O)[C@@H](O)[C@H]3O)[C@@H](O)[C@H](O)[C@H]2O[C@@H]2O[C@@H](C)[C@H](O)[C@@H](O)[C@H]2O)ccc1O [Compound 29, isorhamnetin-3-O-α-L-rhamnopyranosyl-(1→2)-[α-L-rhamnopyranosyl-(1→6)-β-D-glucopyranoside]] | > 100 µM | > 100 µM | – | – | –
10 | O=C(C=Cc1ccc(O)cc1)OC1CC2(O)CC(OC2=O)C1O (centres unmarked) [Compound 8, 3-O-(Z)-p-coumaroylquinide] | – | – | – | > 100 µM | stronger inhibitory effects
11 | COc1cc(/C=C/C(=O)O[C@@H]2C[C@@](O)(C(=O)O)C[C@@H](O)[C@@H]2O)ccc1O [Compound 15, 3-O-(E)-feruloylquinic acid] | > 100 µM | > 100 µM | – | – | –
12 | O=C(/C=C\c1ccc(O)cc1)O[C@H]1C[C@](O)(C(=O)O)C[C@H](O)[C@H]1O [Compound 4, 3-O-(Z)-p-coumaroylquinic acid] | > 100 µM | < 100 µM | 70.4 ± 5.86 µM | – | –
13 | O=C(/C=C/c1ccc(O)cc1)O[C@H]1C[C@](O)(C(=O)O)C[C@H](O)[C@H]1O [Compound 3, 3-O-(E)-p-coumaroylquinic acid] | > 100 µM | < 100 µM | 78.5 ± 8.23 µM | – | –
14 | C[C@@H]1O[C@@H](OC[C@H]2O[C@@H](Oc3c(-c4ccc(O)c(O)c4)oc4cc(O)cc(O)c4c3=O)[C@H](O[C@@H]3O[C@@H](C)[C@H](O)[C@@H](O)[C@H]3O)[C@@H](O)[C@H]2O)[C@H](O)[C@H](O)[C@H]1O [Compound 23, quercetin-3-O-α-L-rhamnopyranosyl-(1→2)-[α-L-rhamnopyranosyl-(1→6)-β-D-galactpyranoside]] | > 100 µM | > 100 µM | – | – | –
15 | O=c1c(O)c(-c2ccc(O)c(O)c2)oc2cc(O)cc(O)c12 [Compound 16, quercetin] | > 100 µM | – | – | – | stronger inhibitory effects
16 | O=C(/C=C/c1ccc(O)c(O)c1)O[C@@H]1C[C@](O)(C(=O)O)C[C@@H](O)[C@H]1O [Compound 14, chlorogenic acid] | > 100 µM | > 100 µM | – | – | –
17 | COc1cc(-c2oc3cc(O)cc(O)c3c(=O)c2O[C@@H]2O[C@H](CO)[C@H](O)[C@H](O)[C@H]2O)ccc1O [Compound 25, isorhamnetin-3-O-β-D-galactopyranoside] | > 100 µM | – | – | – | stronger inhibitory effects

Row | Structure (SMILES) | IC50 (BV2 microglial cells; [2]) | IC50 [1, 3] | IC50 ([1]; LPS-induced BV2 cells) | IC50 (BV2 microglial cells; CCK8, LPS 1 μg/mL 24 h) | inhibitory effects on NO production in comparison with the positive drug indomethacin ([1]; LPS-induced BV2 cells)
18 | C[C@@H]1O[C@@H](OC[C@H]2O[C@@H](Oc3c(-c4ccc(O)cc4)oc4cc(O)cc(O)c4c3=O)[C@H](O)[C@@H](O)[C@@H]2O)[C@H](O)[C@H](O)[C@H]1O [Compound 35, kaempferol-3-O-α-L-rhamnopyranosyl-(1→6)-β-D-glucopyranoside] | > 100 µM | > 100 µM | – | – | –
19 | C[C@@H]1O[C@@H](OC[C@H]2O[C@@H](Oc3c(-c4ccc(O)c(O)c4)oc4cc(O)cc(O)c4c3=O)[C@H](O[C@@H]3O[C@@H](C)[C@H](O)[C@@H](O)[C@H]3O)[C@@H](O)[C@@H]2O)[C@H](O)[C@H](O)[C@H]1O [Compound 22, quercetin-3-O-α-L-rhamnopyranosyl-(1→2)-[α-L-rhamnopyranosyl-(1→6)-β-D-glucopyranoside]] | > 100 µM | > 100 µM | – | – | –
20 | COC(=O)[C@@]1(O)C[C@H](OC(=O)/C=C/c2ccc(O)cc2)[C@H](O)[C@@H](O)C1 [Compound 5, 3-O-(E)-p-coumaroylquinic acid methyl ester] | > 100 µM | < 100 µM | 95.8 ± 7.18 µM | – | –
21 | O=C(/C=C/c1ccc(O)c(O)c1)O[C@H]1C[C@@](O)(C(=O)O)C[C@H](O)[C@@H]1O [Compound 12, neochlorogenic acid] | > 100 µM | > 100 µM | – | – | –
22 | O=c1c(O[C@@H]2O[C@H](CO)[C@@H](O)[C@H](O)[C@H]2O)c(-c2ccc(O)c(O)c2)oc2cc(O)cc(O)c12 [Compound 19, quercetin-3-O-β-D-glucopyranoside] | > 100 µM | > 100 µM | – | – | –
23 | C[C@@H]1O[C@@H](OC[C@H]2O[C@@H](Oc3c(-c4ccc(O)c(O)c4)oc4cc(O)cc(O)c4c3=O)[C@H](O)[C@@H](O)[C@H]2O)[C@H](O)[C@H](O)[C@H]1O [Compound 21, quercetin-3-O-α-L-rhamnopyranosyl-(1→6)-β-D-galactpyranoside] | > 100 µM | > 100 µM | – | – | –
24 | O=C(O)/C=C/c1ccc(O)cc1 [Compound 1, (E)-p-coumaric acid] | > 100 µM | > 100 µM | – | – | –
25 | O=c1c(O[C@@H]2O[C@H](CO)[C@@H](O)[C@H](O)[C@H]2O)c(-c2ccc(O)cc2)oc2cc(O)cc(O)c12 [Compound 33, kaempferol-3-O-β-D-glucopyranoside] | > 100 µM | > 100 µM | – | – | –
26 | COC(=O)[C@@]1(O)C[C@H](OC(=O)/C=C\c2ccc(O)cc2)[C@H](O)[C@@H](O)C1 [Compound 6, 3-O-(Z)-p-coumaroylquinic acid methyl ester] | > 100 µM | > 100 µM | – | – | –
27 | COc1cc(-c2oc3cc(O)cc(O)c3c(=O)c2O)ccc1O [Compound 24, isorhamnetin] | > 100 µM | – | – | – | stronger inhibitory effects
28 | O=C(/C=C/c1ccc(O)cc1)O[C@H]1C[C@@](O)(C(=O)O)C[C@H](O)[C@@H]1O [Compound 11, 5-O-(E)-p-coumaroylquinic acid] | > 100 µM | > 100 µM | – | – | –
29 | O=c1c(O[C@@H]2O[C@H](CO)[C@H](O)[C@H](O)[C@H]2O)c(-c2ccc(O)cc2)oc2cc(O)cc(O)c12 [Compound 32, kaempferol-3-O-β-D-galactopyranoside] | > 100 µM | > 100 µM | – | – | –
30 | O=C(/C=C/c1ccc(O)c(O)c1)O[C@H]1[C@@H](O)C[C@](O)(C(=O)O)C[C@@H]1O [Compound 13, crypto-chlorogenic acid] | > 100 µM | < 100 µM | 74.4 ± 6.53 µM | – | –
31 | C[C@@H]1O[C@@H](OC[C@H]2O[C@@H](Oc3c(-c4ccc(O)cc4)oc4cc(O)cc(O)c4c3=O)[C@H](O[C@@H]3O[C@@H](C)[C@H](O)[C@@H](O)[C@H]3O)[C@@H](O)[C@@H]2O)[C@H](O)[C@H](O)[C@H]1O [Compound 37, kaempferol-3-O-[α-L-rhamnopyranosyl-(1→6)]-[α-L-rhamnopyranosyl-(1→2)]-β-D-glucopyranoside] | > 100 µM | < 100 µM | 96.1 ± 11.6 µM | – | –
32 | COc1cc(-c2oc3cc(O)cc(O)c3c(=O)c2O[C@@H]2O[C@H](CO)[C@@H](O)[C@H](O)[C@H]2O)ccc1O [Compound 26, isorhamnetin-3-O-β-D-glucopyranoside] | > 100 µM | > 100 µM | – | – | –
33 | O=c1c(O)c(-c2ccc(O)cc2)oc2cc(O)cc(O)c12 [Compound 30, kaempferol] | > 100 µM | – | – | – | stronger inhibitory effects
